Values after ≈ are worked out from the molar mass of the structure shown.
Assays:
[1] = ERGO concentration found in Pinot noir wines after 18 months of bottle storage; type: physicochemical; settings: for ERGO Found: Pinot noir wine, after 18 months bottle storage
Source text: According to the invention, sulfur dioxide was replaced in whole or in part with L-ergothioneine in Pinot noir wines at bottling.

[2] = Stability over time in food and beverages; type: physicochemical; settings: stored over a period of several years
[3] = cited from earlier work
[4] = per one unit of L-Ergothioneine; cited from earlier work
[5] = tested on: LPO formation in mouse liver; settings: cited from earlier work
liver tissue of rats = settings: exogenous L-ergothioneine; cited from earlier work

Row | Compound | ERGO Found ([1]; SO2 added 0 mg/L, ERGO added 10 mg/L at bottling) | ERGO Found ([1]; SO2 added 0 mg/L, ERGO added 30 mg/L at bottling) | ERGO Found ([1]; SO2 added 0 mg/L, ERGO added 50 mg/L at bottling) | ERGO Found ([1]; SO2 added 0 mg/L, ERGO added 70 mg/L at bottling) | presence of ergothioneine in the wine after storage ([1]; Pinot noir wines, SO2 replaced in whole or in part at bottling, after 18 months of storage) | stability over time [2] | water solubility [3] | solubility limit ([3]; room temperature) | units of Vitamin E equivalent to one unit [4] | LPO formation [5] | decomposition of existing LPO [5] | lipid peroxidation by toxic compounds (liver tissue of rats) | ERGO Found ([1]; SO2 added 30 mg/L, ERGO added 0 mg/L at bottling) | ERGO Found ([1]; SO2 added 70 mg/L, ERGO added 0 mg/L at bottling)
1 | C[N+](C)(C)[C@@H](Cc1c[nH]c(=S)[nH]1)C(=O)[O-] [L-ergothioneine] | 8.8 mg/L | 29.8 mg/L | 55.4 mg/L | 81.2 mg/L | still present in the wine | very stable over time | readily water soluble | 900 mM (≈ 206 mg/mL) | ~7000 units of Vitamin E | inhibited LPO formation | enhanced the decomposition of existing LPO | prevent lipid peroxidation | – | –
2 | O=S=O [SO2, sulfur dioxide, reference compound] | – | – | – | – | – | – | – | – | – | – | – | – | 7.3 mg/L | 7.5 mg/L

From patent US20130035361A1, “USE OF ERGOTHIONEINE AS A PRESERVATIVE IN FOODS AND BEVERAGES” (priority 2007, published 2013)
